Results taken from BigSolDB 2.1.

O=P(CCCO)(CCCO)CCCO
Conditions	solubility (mole fraction)
in acetone, 293.15 K	0.0007
in acetone, 298.14 K	0.00101
in acetone, 303.16 K	0.00151
in acetone, 308.21 K	0.00217
in acetone, 313.17 K	0.00303
in acetone, 318.12 K	0.00425
in acetone, 323.15 K	0.00593
in ethanol, 298.12 K	0.0226
in ethanol, 303.22 K	0.0286
in ethanol, 308.17 K	0.036
in ethanol, 313.1 K	0.0456
in ethanol, 318.08 K	0.0569
in ethanol, 323.11 K	0.0718
in ethanol, 328.16 K	0.0919
in isobutanol, 293.11 K	0.0122
in isobutanol, 298.21 K	0.0154
in isobutanol, 303.13 K	0.019
in isobutanol, 308.15 K	0.0234
in isobutanol, 313.17 K	0.0291
in isobutanol, 318.14 K	0.0357
in isobutanol, 323.23 K	0.0436
in isopropanol, 298.13 K	0.0155
in isopropanol, 303.21 K	0.0187
in isopropanol, 308.15 K	0.0224
in isopropanol, 313.17 K	0.027
in isopropanol, 318.19 K	0.0321
in isopropanol, 323.11 K	0.0386
in isopropanol, 328.18 K	0.0465
in methanol, 298.11 K	0.0527
in methanol, 303.15 K	0.0702
in methanol, 308.18 K	0.091
in methanol, 313.1 K	0.115
in methanol, 318.22 K	0.144
in methanol, 323.14 K	0.176
in methanol, 328.11 K	0.21
in n-butanol, 298.13 K	0.011
in n-butanol, 303.21 K	0.0138
in n-butanol, 308.11 K	0.0163
in n-butanol, 313.17 K	0.02
in n-butanol, 318.15 K	0.0252
in n-butanol, 323.1 K	0.0302
in n-butanol, 328.23 K	0.0369
in n-propanol, 298.16 K	0.0369
in n-propanol, 303.11 K	0.0438
in n-propanol, 308.13 K	0.0517
in n-propanol, 313.12 K	0.062
in n-propanol, 318.16 K	0.0731
in n-propanol, 323.21 K	0.0866
in n-propanol, 328.18 K	0.102
